Eleven compounds from ChEMBL document CHEMBL3351292, “Structure-Based Design and Synthesis of Potent Cyclic Peptides Inhibiting the YAP-TEAD Protein-Protein Interaction” (ACS Med Chem Lett, 2014) can be followed below.

Molecules are shown by their SMILES. Where a SMILES comes first, the peptide text is derived from it.

As usually defined, the inhibition is the share of the control response that was lost under treatment.

Transcriptional coactivator YAP1/Transcriptional enhancer factor TEF-1 (Homo sapiens), sequence (P28347 whole entry, looked up): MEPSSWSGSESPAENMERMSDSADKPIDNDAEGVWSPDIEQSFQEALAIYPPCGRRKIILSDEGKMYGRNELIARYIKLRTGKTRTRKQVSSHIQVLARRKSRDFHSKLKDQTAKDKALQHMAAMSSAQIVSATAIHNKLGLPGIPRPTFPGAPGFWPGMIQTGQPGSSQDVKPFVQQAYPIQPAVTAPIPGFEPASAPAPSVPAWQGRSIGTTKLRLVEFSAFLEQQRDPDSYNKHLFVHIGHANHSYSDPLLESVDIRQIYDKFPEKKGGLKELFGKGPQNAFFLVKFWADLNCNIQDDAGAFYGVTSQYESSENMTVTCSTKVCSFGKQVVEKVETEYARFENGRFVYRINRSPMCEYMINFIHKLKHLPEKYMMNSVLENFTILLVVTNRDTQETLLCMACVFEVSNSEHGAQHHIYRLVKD
Transcriptional coactivator YAP1/Transcriptional enhancer factor TEF-1 (Homo sapiens), sequence (P46937 whole entry, looked up): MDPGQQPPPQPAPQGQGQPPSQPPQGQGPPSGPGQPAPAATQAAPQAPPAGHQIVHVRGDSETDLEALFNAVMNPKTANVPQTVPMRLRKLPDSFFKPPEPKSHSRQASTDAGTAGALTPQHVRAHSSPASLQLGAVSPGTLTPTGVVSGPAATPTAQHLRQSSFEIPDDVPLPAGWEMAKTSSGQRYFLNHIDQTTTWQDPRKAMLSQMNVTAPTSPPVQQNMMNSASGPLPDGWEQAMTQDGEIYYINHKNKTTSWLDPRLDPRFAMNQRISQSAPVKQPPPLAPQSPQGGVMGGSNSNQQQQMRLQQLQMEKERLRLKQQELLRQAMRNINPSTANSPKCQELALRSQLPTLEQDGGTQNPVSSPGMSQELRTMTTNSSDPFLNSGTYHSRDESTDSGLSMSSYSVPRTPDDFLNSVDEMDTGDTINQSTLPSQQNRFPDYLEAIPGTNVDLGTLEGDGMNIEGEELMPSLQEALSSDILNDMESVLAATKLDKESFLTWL

This assay has as its target Transcriptional coactivator YAP1/Transcriptional enhancer factor TEF-1 (Homo sapiens) (UniProt P46937+P28347). In words: Inhibition of YAP/ GST-TEAD1 (unknown origin) interaction at 50 uM by surface plasmon resonance assay. It counts as protein assay. In general terms: Surface plasmon resonance follows binding to a sensor surface in real time, without labels.
Take `CSCC[C@H](NC(=O)[C@H](C)NC(=O)[C@@H](NC(=O)[C@@H](NC(=O)[C@H](CCC(N)=O)NC(=O)[C@@H]1CCCN1C(C)=O)[C@@H](C)O)C(C)C)C(=O)N[C@@H](CCCNC(=N)N)C(=O)N[C@@H](CC(C)C)C(=O)N[C@@H](CCCNC(=N)N)C(=O)N[C@@H](CCCCN)C(=O)N[C@@H](CC(C)C)C(=O)N1CCC[C@H]1C(=O)N[C@@H](CC(=O)O)C(=O)N[C@@H](CO)C(=O)N[C@@H](Cc1ccccc1)C(=O)N[C@@H](Cc1ccccc1)C(=O)N[C@@H](CCCCN)C(=O)N1CCC[C@H]1C(=O)N1CCC[C@H]1C(=O)N[C@@H](CCC(=O)O)C(N)=O` (Ac-PQTVAMRLRKLPDSFFKPPE-NH2): the inhibition is 33%. Under `CC(=O)N1CCC[C@H]1C(=O)N[C@@H](CCC(N)=O)C(=O)N[C@H](C(=O)N[C@H](C(=O)N1CCC[C@H]1C(=O)N[C@@H](C)C(=O)N[C@@H](CCCNC(=N)N)C(=O)N[C@@H](CC(C)C)C(=O)N[C@@H](CCCNC(=N)N)C(=O)N[C@@H](CCCCN)C(=O)N[C@@H](CC(C)C)C(=O)N1CCC[C@H]1C(=O)N[C@@H](CC(=O)O)C(=O)N[C@@H](CO)C(=O)N[C@@H](Cc1ccccc1)C(=O)N[C@@H](Cc1ccccc1)C(=O)N[C@@H](CCCCN)C(=O)N1CCC[C@H]1C(=O)N1CCC[C@H]1C(=O)N[C@@H](CCC(=O)O)C(N)=O)C(C)C)[C@@H](C)O` (Ac-PQTVPARLRKLPDSFFKPPE-NH2) stands 1.3%; under `CSCC[C@H](NC(=O)[C@@H]1CCCN1C(=O)[C@@H](NC(=O)[C@@H](NC(=O)[C@H](CCC(N)=O)NC(=O)[C@@H]1CCCN1C(C)=O)[C@@H](C)O)C(C)C)C(=O)N[C@@H](C)C(=O)N[C@@H](CC(C)C)C(=O)N[C@@H](CCCNC(=N)N)C(=O)N[C@@H](CCCCN)C(=O)N[C@@H](CC(C)C)C(=O)N1CCC[C@H]1C(=O)N[C@@H](CC(=O)O)C(=O)N[C@@H](CO)C(=O)N[C@@H](Cc1ccccc1)C(=O)N[C@@H](Cc1ccccc1)C(=O)N[C@@H](CCCCN)C(=O)N1CCC[C@H]1C(=O)N1CCC[C@H]1C(=O)N[C@@H](CCC(=O)O)C(N)=O` (Ac-PQTVPMALRKLPDSFFKPPE-NH2), 23%.

Regarding `CSCC[C@H](NC(=O)[C@@H]1CCCN1C(=O)[C@@H](NC(=O)[C@@H](NC(=O)[C@H](CCC(N)=O)NC(=O)[C@@H]1CCCN1C(C)=O)[C@@H](C)O)C(C)C)C(=O)N[C@@H](CCCNC(=N)N)C(=O)N[C@@H](C)C(=O)N[C@@H](CCCNC(=N)N)C(=O)N[C@@H](CCCCN)C(=O)N[C@@H](CC(C)C)C(=O)N1CCC[C@H]1C(=O)N[C@@H](CC(=O)O)C(=O)N[C@@H](CO)C(=O)N[C@@H](Cc1ccccc1)C(=O)N[C@@H](Cc1ccccc1)C(=O)N[C@@H](CCCCN)C(=O)N1CCC[C@H]1C(=O)N1CCC[C@H]1C(=O)N[C@@H](CCC(=O)O)C(N)=O` (Ac-PQTVPMRARKLPDSFFKPPE-NH2), the inhibition stood at 49%. As for `CSCC[C@H](NC(=O)[C@@H]1CCCN1C(=O)[C@@H](NC(=O)[C@@H](NC(=O)[C@H](CCC(N)=O)NC(=O)[C@@H]1CCCN1C(C)=O)[C@@H](C)O)C(C)C)C(=O)N[C@@H](CCCNC(=N)N)C(=O)N[C@@H](CC(C)C)C(=O)N[C@@H](C)C(=O)N[C@@H](CCCCN)C(=O)N[C@@H](CC(C)C)C(=O)N1CCC[C@H]1C(=O)N[C@@H](CC(=O)O)C(=O)N[C@@H](CO)C(=O)N[C@@H](Cc1ccccc1)C(=O)N[C@@H](Cc1ccccc1)C(=O)N[C@@H](CCCCN)C(=O)N1CCC[C@H]1C(=O)N1CCC[C@H]1C(=O)N[C@@H](CCC(=O)O)C(N)=O` (Ac-PQTVPMRLAKLPDSFFKPPE-NH2), the inhibition was 1.7%. Then `CSCC[C@H](NC(=O)[C@@H]1CCCN1C(=O)[C@@H](NC(=O)[C@@H](NC(=O)[C@H](CCC(N)=O)NC(=O)[C@@H]1CCCN1C(C)=O)[C@@H](C)O)C(C)C)C(=O)N[C@@H](CCCNC(=N)N)C(=O)N[C@@H](CC(C)C)C(=O)N[C@@H](CCCNC(=N)N)C(=O)N[C@@H](C)C(=O)N[C@@H](CC(C)C)C(=O)N1CCC[C@H]1C(=O)N[C@@H](CC(=O)O)C(=O)N[C@@H](CO)C(=O)N[C@@H](Cc1ccccc1)C(=O)N[C@@H](Cc1ccccc1)C(=O)N[C@@H](CCCCN)C(=O)N1CCC[C@H]1C(=O)N1CCC[C@H]1C(=O)N[C@@H](CCC(=O)O)C(N)=O` (Ac-PQTVPMRLRALPDSFFKPPE-NH2), with 42%; and `CSCC[C@H](NC(=O)[C@@H]1CCCN1C(=O)[C@@H](NC(=O)[C@@H](NC(=O)[C@H](CCC(N)=O)NC(=O)[C@@H]1CCCN1C(C)=O)[C@@H](C)O)C(C)C)C(=O)N[C@@H](CCCNC(=N)N)C(=O)N[C@@H](CC(C)C)C(=O)N[C@@H](CCCNC(=N)N)C(=O)N[C@@H](CCCCN)C(=O)N[C@@H](C)C(=O)N1CCC[C@H]1C(=O)N[C@@H](CC(=O)O)C(=O)N[C@@H](CO)C(=O)N[C@@H](Cc1ccccc1)C(=O)N[C@@H](Cc1ccccc1)C(=O)N[C@@H](CCCCN)C(=O)N1CCC[C@H]1C(=O)N1CCC[C@H]1C(=O)N[C@@H](CCC(=O)O)C(N)=O` (Ac-PQTVPMRLRKAPDSFFKPPE-NH2), with 0%; and `CSCC[C@H](NC(=O)[C@@H]1CCCN1C(=O)[C@@H](NC(=O)[C@@H](NC(=O)[C@H](CCC(N)=O)NC(=O)[C@@H]1CCCN1C(C)=O)[C@@H](C)O)C(C)C)C(=O)N[C@@H](CCCNC(=N)N)C(=O)N[C@@H](CC(C)C)C(=O)N[C@@H](CCCNC(=N)N)C(=O)N[C@@H](CCCCN)C(=O)N[C@@H](CC(C)C)C(=O)N[C@@H](C)C(=O)N[C@@H](CC(=O)O)C(=O)N[C@@H](CO)C(=O)N[C@@H](Cc1ccccc1)C(=O)N[C@@H](Cc1ccccc1)C(=O)N[C@@H](CCCCN)C(=O)N1CCC[C@H]1C(=O)N1CCC[C@H]1C(=O)N[C@@H](CCC(=O)O)C(N)=O` (Ac-PQTVPMRLRKLADSFFKPPE-NH2), with 0%.

Take `CSCC[C@H](NC(=O)[C@@H]1CCCN1C(=O)[C@@H](NC(=O)[C@@H](NC(=O)[C@H](CCC(N)=O)NC(=O)[C@@H]1CCCN1C(C)=O)[C@@H](C)O)C(C)C)C(=O)N[C@@H](CCCNC(=N)N)C(=O)N[C@@H](CC(C)C)C(=O)N[C@@H](CCCNC(=N)N)C(=O)N[C@@H](CCCCN)C(=O)N[C@@H](CC(C)C)C(=O)N1CCC[C@H]1C(=O)N[C@@H](CC(=O)O)C(=O)N[C@@H](C)C(=O)N[C@@H](Cc1ccccc1)C(=O)N[C@@H](Cc1ccccc1)C(=O)N[C@@H](CCCCN)C(=O)N1CCC[C@H]1C(=O)N1CCC[C@H]1C(=O)N[C@@H](CCC(=O)O)C(N)=O` (Ac-PQTVPMRLRKLPDAFFKPPE-NH2): the inhibition stood at 1.6%.

Turning to `CSCC[C@H](NC(=O)[C@@H]1CCCN1C(=O)[C@@H](NC(=O)[C@@H](NC(=O)[C@H](CCC(N)=O)NC(=O)[C@@H]1CCCN1C(C)=O)[C@@H](C)O)C(C)C)C(=O)N[C@@H](CCCNC(=N)N)C(=O)N[C@@H](CC(C)C)C(=O)N[C@@H](CCCNC(=N)N)C(=O)N[C@@H](CCCCN)C(=O)N[C@@H](CC(C)C)C(=O)N1CCC[C@H]1C(=O)N[C@@H](CC(=O)O)C(=O)N[C@@H](CO)C(=O)N[C@@H](C)C(=O)N[C@@H](Cc1ccccc1)C(=O)N[C@@H](CCCCN)C(=O)N1CCC[C@H]1C(=O)N1CCC[C@H]1C(=O)N[C@@H](CCC(=O)O)C(N)=O` (Ac-PQTVPMRLRKLPDSAFKPPE-NH2), the inhibition was 4%. Then `CSCC[C@H](NC(=O)[C@@H]1CCCN1C(=O)[C@@H](NC(=O)[C@@H](NC(=O)[C@H](CCC(N)=O)NC(=O)[C@@H]1CCCN1C(C)=O)[C@@H](C)O)C(C)C)C(=O)N[C@@H](CCCNC(=N)N)C(=O)N[C@@H](CC(C)C)C(=O)N[C@@H](CCCNC(=N)N)C(=O)N[C@@H](CCCCN)C(=O)N[C@@H](CC(C)C)C(=O)N1CCC[C@H]1C(=O)N[C@@H](CC(=O)O)C(=O)N[C@@H](CO)C(=O)N[C@@H](Cc1ccccc1)C(N)=O` (Ac-PQTVPMRLRKLPDSF-NH2), with 5.4%.
